Assay results reported in publication PMC8156151 (The European Respiratory Journal, 2021).
Read-outs that look alike come from different tables or passages of the source.

Columns and labels:
Assay type in all cases: in vivo, human
CCL2 (MCP-1) = assay: Plasma biomarker CCL2; settings: for CCL2 (MCP-1) raw data, Mean (SD) / CCL2 (MCP-1) least square means % baseline±SEM: IPF patients
Protocol: (§1) All patients, investigators, sites and study sponsor personnel were blinded to the study group assignments throughout the study. Patients underwent study-specific assessments on days 2, 3, 7, 14 and 15, and a post-study assessment was carried out 26–30 days after the last day of the study period. Assessments included vital signs (supine blood pressure, pulse, oxygen saturation, oral temperature and respiratory rate), spirometry, 12-lead ECG, physical examination, laboratory safety screen (haematology, biochemistry, urinalysis and urinary drugs of abuse screen) and blood sampling for PK measurements. All adverse events and concomitant medications were recorded from the time of the screening visit until the post-study follow-up visit. BAL was performed at day −1 (24 h before the first dose) and at day 14 (2 h after the last dose). The BAL procedure was performed as per international guidelines. Briefly, 240 mL of 0.9% saline at room temperature was instilled in 40 mL aliquots into the right middle lobe and aspirated by suction after each aliquot.
(§2) BAL cells were separated from fluid by centrifugation, and cells were collected, stained with antibodies (supplementary material) and then fixed before analysis using a LSR Fortessa flow cytometer (Becton Dickinson, Franklin Lakes, NJ, USA). Data were analysed using FlowJo software (Tree Star, Ashland, OR, USA). Macrophages were identified as having high side scatter properties and human leukocyte antigen-DR positivity. Gal-3 expression (mean fluorescence intensity) was determined from the macrophage gate (supplementary figures S1 and S2). […] Samples were analysed by magnetic Luminex assay (R&D Systems, Minneapolis, MN, USA) or ELISA.
(§3) For part 2 of the study, placebos were combined from the three dose-specific cohorts into a pooled control group (n=9). For alveolar macrophage Gal-3 expression and the plasma biomarkers, ANCOVA was performed for percentage of baseline ((day 14/day 1)×100). The ANCOVA model included effects for treatment group and baseline (day 1) value. […] An additional analysis including dose as a continuous covariate was also performed. The Pearson correlation coefficient (r) and associated p-value were calculated for percentage of baseline and day 14 values between plasma biomarkers and alveolar macrophage Gal-3 expression. […] The analysis is exploratory and there was no pre-planned adjustment for multiple testing; the study was not powered for this. Alveolar macrophage Gal-3 expression was considered the primary exploratory analysis with the pre-selected biomarkers secondary. A Bonferroni correction for multiple testing of the secondary end-points comparing the 10 mg group with placebo gives a critical value of 0.0063. Data are presented as the difference in least square means with 95% confidence interval and p-value unless otherwise stated. All analyses were performed using SAS version 9.4 (SAS Institute, Cary, NC, USA). […]

CCL5 (RANTES) = assay: Plasma biomarker CCL5; settings: for CCL5 (RANTES) raw data, Mean (SD) / CCL5 (RANTES) least square means % baseline±SEM: IPF patients
Protocol: as §1, §2, §3

Gal-3 = settings: for Galectin-3 raw data, Mean (SD) / Gal-3 least square means % baseline±SEM: IPF patients; for Galectin-3 raw data, Mean (SD): Day 14; for Gal-3 least square means % baseline±SEM: day 14
Protocol: as §1, with “BAL was performed at day −1 (24 h before the first dose) and at day 14 (2 h after the last dose).” left out
as §2
as §3, with “Data are presented as the difference in least square means with 95% confidence interval and p-value unless otherwise stated.” left out
Plasma pharmacodynamic biomarkers
The following pre-specified biomarkers were evaluated in samples of plasma based on the basis

SP-D = assay: Plasma biomarker SP-D; settings: for SP-D raw data, Mean (SD) / SP-D least square means % baseline±SEM: IPF patients
Protocol: as §1, §2, §3

MIF = assay: Plasma biomarker MIF; settings: for MIF raw data, Mean (SD) / MIF least square means % baseline±SEM: IPF patients
Protocol: as §1, §2, §3

YKL-40 (CHI3L1) = assay: Plasma biomarker YKL-40; settings: for YKL-40 (CHI3L1) raw data, Mean (SD) / YKL-40 (CHI3L1) least square means % baseline±SEM: IPF patients
Protocol: as §1, §2, §3

TIMP-1 = assay: Plasma biomarker TIMP-1; settings: for TIMP1 raw data, Mean (SD) / TIMP-1 least square means % baseline±SEM: IPF patients
Protocol: as §1, §2, §3

Compound: OC[C@H]1O[C@@H](S[C@@H]2O[C@H](CO)[C@H](O)[C@H](n3cc(-c4cccc(F)c4)nn3)[C@H]2O)[C@H](O)[C@@H](n2cc(-c3cccc(F)c3)nn2)[C@H]1O [TD139]
- CCL2 (MCP-1) difference in least square means % baseline (95% CI) (CCL2 (MCP-1); 10 mg vs placebo, ANCOVA): −71.7 (−187.1–43.7) % baseline
- CCL2 (MCP-1) raw data, Mean (SD) (CCL2 (MCP-1); Day 14, 0.3 mg): 133.8 (15.06) pg/ml
- CCL2 (MCP-1) raw data, Mean (SD) (CCL2 (MCP-1); Day 14, 3 mg): 137.6 (63.21) pg/ml
- CCL2 (MCP-1) raw data, Mean (SD) (CCL2 (MCP-1); Day 14, 10 mg): 270.3 (348.45) pg/ml
- CCL2 (MCP-1) least square means % baseline±SEM (CCL2 (MCP-1); day 14, 0.3 mg once daily): 126.7±39.3 % baseline
- CCL2 (MCP-1) least square means % baseline±SEM (CCL2 (MCP-1); day 14, 3 mg once daily): 93.7±38.7 % baseline
- CCL2 (MCP-1) least square means % baseline±SEM (CCL2 (MCP-1); day 14, 10 mg once daily): 89.4±43.5 % baseline
- CCL5 (RANTES) difference in least square means % baseline (95% CI) (CCL5 (RANTES); 10 mg vs placebo, ANCOVA): −54.1 (−147–38.8) % baseline
- CCL5 (RANTES) raw data, Mean (SD) (CCL5 (RANTES); Day 14, 0.3 mg): 47658.1 (27017.8) pg/ml
- CCL5 (RANTES) raw data, Mean (SD) (CCL5 (RANTES); Day 14, 3 mg): 75675.6 (92820.57) pg/ml
- CCL5 (RANTES) raw data, Mean (SD) (CCL5 (RANTES); Day 14, 10 mg): 33994.2 (29435.9) pg/ml
- CCL5 (RANTES) least square means % baseline±SEM (CCL5 (RANTES); day 14, 0.3 mg once daily): 62.3±37.1 % baseline
- CCL5 (RANTES) least square means % baseline±SEM (CCL5 (RANTES); day 14, 3 mg once daily): 115.1±35.1 % baseline
- CCL5 (RANTES) least square means % baseline±SEM (CCL5 (RANTES); day 14, 10 mg once daily): 75.8±35.8 % baseline
- circulating Gal-3 plasma concentrations (percentage of baseline), difference versus placebo (Gal-3; 10 mg dose group): −67.63%
- Galectin-3 raw data, Mean (SD) (Gal-3; plasma, 0.3 mg): 13290.4 (4951.24) pg/ml
- Galectin-3 raw data, Mean (SD) (Gal-3; plasma, 3 mg): 9298.5 (3499.54) pg/ml
- Galectin-3 raw data, Mean (SD) (Gal-3; plasma, 10 mg): 4486.3 (697.25) pg/ml
- Gal-3 least square means % baseline±SEM (Gal-3; plasma, 0.3 mg once daily): 113.9±21.2 % baseline
- Gal-3 least square means % baseline±SEM (Gal-3; plasma, 3 mg once daily): 119.5±21.3 % baseline
- Gal-3 least square means % baseline±SEM (Gal-3; plasma, 10 mg once daily): 53.4±23.5 % baseline
- Gal-3 difference in least square means % baseline (95% CI) (Gal-3; plasma, 10 mg vs placebo, ANCOVA): −67.6 (−126.9– −8.4) % baseline
- SP-D difference in least square means % baseline (95% CI) (SP-D; 10 mg vs placebo, ANCOVA): 4.0 (−41.0–49.1) % baseline
- SP-D raw data, Mean (SD) (SP-D; Day 14, 0.3 mg): 38987.4 (10734.36) pg/ml
- SP-D raw data, Mean (SD) (SP-D; Day 14, 3 mg): 91473.6 (43437.58) pg/ml
- SP-D raw data, Mean (SD) (SP-D; Day 14, 10 mg): 30347 (3552.88) pg/ml
- SP-D least square means % baseline±SEM (SP-D; day 14, 0.3 mg once daily): 109.6±16.6 % baseline
- SP-D least square means % baseline±SEM (SP-D; day 14, 3 mg once daily): 111.7±18.2 % baseline
- SP-D least square means % baseline±SEM (SP-D; day 14, 10 mg once daily): 118.7±17.3 % baseline
- MIF difference in least square means % baseline (95% CI) (MIF; 10 mg vs placebo, ANCOVA): −120.2 (−339.2–98.9) % baseline
- MIF raw data, Mean (SD) (MIF; Day 14, 0.3 mg): 65871.3 (42284.53) pg/ml
- MIF raw data, Mean (SD) (MIF; Day 14, 3 mg): 38884 (35236.82) pg/ml
- MIF raw data, Mean (SD) (MIF; Day 14, 10 mg): 39660.6 (57202.1) pg/ml
- MIF least square means % baseline±SEM (MIF; day 14, 0.3 mg once daily): 123.6±83.6 % baseline
- MIF least square means % baseline±SEM (MIF; day 14, 3 mg once daily): 95.9±83.9 % baseline
- MIF least square means % baseline±SEM (MIF; day 14, 10 mg once daily): 73.9±83.7 % baseline
- YKL-40 (CHI3L1) difference in least square means % baseline (95% CI) (YKL-40 (CHI3L1); 10 mg vs placebo, ANCOVA): −28.9 (−55.9– −1.9) % baseline
- YKL-40 (CHI3L1) raw data, Mean (SD) (YKL-40 (CHI3L1); Day 14, 0.3 mg): 45140.2 (34041.85) pg/ml
- YKL-40 (CHI3L1) raw data, Mean (SD) (YKL-40 (CHI3L1); Day 14, 3 mg): 146819.5 (40114.19) pg/ml
- YKL-40 (CHI3L1) raw data, Mean (SD) (YKL-40 (CHI3L1); Day 14, 10 mg): 79975.5 (38590.77) pg/ml
- YKL-40 (CHI3L1) least square means % baseline±SEM (YKL-40 (CHI3L1); day 14, 0.3 mg once daily): 84.1±12.5 % baseline
- YKL-40 (CHI3L1) least square means % baseline±SEM (YKL-40 (CHI3L1); day 14, 3 mg once daily): 50.2±18.6 % baseline
- YKL-40 (CHI3L1) least square means % baseline±SEM (YKL-40 (CHI3L1); day 14, 10 mg once daily): 51.6±10.4 % baseline
- TIMP-1 difference in least square means % baseline (95% CI) (TIMP-1; 10 mg vs placebo, ANCOVA): 3.8 (−10.6–18.2) % baseline
- TIMP1 raw data, Mean (SD) (TIMP-1; Day 14, 0.3 mg): 38084.3 (4735.81) pg/ml
- TIMP1 raw data, Mean (SD) (TIMP-1; Day 14, 3 mg): 49880.6 (1032.27) pg/ml
- TIMP1 raw data, Mean (SD) (TIMP-1; Day 14, 10 mg): 45458.7 (11908.04) pg/ml
- TIMP-1 least square means % baseline±SEM (TIMP-1; day 14, 0.3 mg once daily): 88.6±5.8 % baseline
- TIMP-1 least square means % baseline±SEM (TIMP-1; day 14, 3 mg once daily): 107.0±6.0 % baseline
- TIMP-1 least square means % baseline±SEM (TIMP-1; day 14, 10 mg once daily): 106.0±5.5 % baseline
